The source of these data is ChEMBL document CHEMBL4190187, “Discovery of pyrazolopyrimidine derivatives as novel inhibitors of ataxia telangiectasia and rad3 related protein (ATR)” (Bioorg Med Chem Lett, 2017).

Molecules are shown by their SMILES.

Data set [1] has as its target Dual specificity protein kinase CLK4 (Homo sapiens) (UniProt Q9HAZ1). The data set is described as follows: Inhibition of recombinant human CLK4 (128 to end residues) at 1 uM using YRRAAVPPSPSLSRHSSPHQS(p)EDEEE as substrate after 40 mins in presence of [gamma-33P]ATP by scintillation counting method.
In data set [2] the target is Serine/threonine-protein kinase TBK1 (Homo sapiens) (UniProt Q9UHD2). The data set is described as follows: Inhibition of recombinant full-length human TBK1 at 1 uM using KRRRALS(p)VASLPGL as substrate after 40 mins in presence of [gamma-33P]ATP by scintillation counting method.
The test system of data set [3] is Receptor-type tyrosine-protein kinase FLT3 (Homo sapiens), P36888 [D835Y]. The data set is described as follows: Inhibition of recombinant human Flt3 D835Y mutant (564 to end residues) at 1 uM using EAIYAAPFAKKK as substrate after 40 mins in presence of [gamma-33P]ATP by scintillation counting method.
Data set [4] deals with Dual specificity mitogen-activated protein kinase kinase 7 (Homo sapiens) (UniProt O14733). The experiment in a line: Inhibition of recombinant human MKK7beta (2 to end residues) at 1 uM using inactive JNK171 as substrate after 40 mins in presence of [gamma-33P]ATP by scintillation counting method.
The target in data set [5] is Mitogen-activated protein kinase kinase kinase 7 (Homo sapiens) (UniProt O43318). The experiment in a line: Inhibition of recombinant human TAK1 (1 to 303 residues) at 1 uM using casein as substrate after 40 mins in presence of [gamma-33P]ATP by scintillation counting method.
The target of data set [6] is Casein kinase II subunit alpha (Homo sapiens) (UniProt P68400). The data set is described as follows: Inhibition of recombinant full-length human CK2 at 1 uM using RRRDDDSDDD as substrate after 40 mins in presence of [gamma-33P]ATP by scintillation counting method.
Data set [7] has as its target Testis-specific serine/threonine-protein kinase 4 (Homo sapiens) (UniProt Q6SA08). The experiment in a line: Inhibition of recombinant full-length human TSSK4 at 1 uM using KKLNRTLSFAEPG as substrate after 40 mins in presence of [gamma-33P]ATP by scintillation counting method.
The target of data set [8] is Tyrosine-protein kinase HCK (Homo sapiens) (UniProt P08631). The data set is described as follows: Inhibition of recombinant human Hck (230 to 497 residues) at 1 uM using KVEKIGEGTYGVVYK (Cdc2 peptide) as substrate after 40 mins in presence of [gamma-33P]ATP by scintillation counting method.
The target in data set [9] is Mitogen-activated protein kinase 12 (Homo sapiens) (UniProt P53778). The experiment in a line: Inhibition of recombinant full-length human SAPK3 at 1 uM using myelin basic protein as substrate after 40 mins in presence of [gamma-33P]ATP by scintillation counting method.
Data set [10] has as its target Death-associated protein kinase 1 (Homo sapiens) (UniProt P53355). The data set is described as follows: Inhibition of recombinant human DAPK1 (1 to 296 residues) at 1 uM using KKLNRTLSFAEPG as substrate after 40 mins in presence of [gamma-33P]ATP by scintillation counting method.
In data set [11] the target is PI3K p110 beta/p85 alpha (Homo sapiens) (UniProt P27986+P42338). The experiment in a line: Inhibition of recombinant full-length human p110b/p85a at 1 uM using phosphatidylinositol 4,5-bisphosphate as substrate after 40 mins in presence of [gamma-33P]ATP by scintillation counting method. Type of data set: protein-complex assay.
Data set [12] addresses Insulin-like growth factor 1 receptor (Homo sapiens) (UniProt P08069). The data set is described as follows: Inhibition of recombinant human IGF-1R (959 to end residues) at 1 uM using KKKSPGEYVNIEFG as substrate after 40 mins in presence of [gamma-33P]ATP by scintillation counting method.
Data set [13] can be described thus: Metabolic stability in rat liver microsomes assessed as compound remaining at 1 uM in presence of NADPH as cofactor measured after 30 mins by LC-MS/MS method. It is filed as ADME, microsome. The settings on record: read-out: Stability.
The target of data set [14] is CDK12/Cyclin K (Homo sapiens) (UniProt O75909+Q9NYV4). The data set is described as follows: Inhibition of recombinant full-length human CDK12/Cyclin K at 1 uM using RSRSRSRSRSRSRSR as substrate after 120 mins in presence of [gamma-33P]ATP by scintillation counting method. Type of data set: protein-complex assay.
In data set [15] the target is Inhibitor of nuclear factor kappa-B kinase subunit epsilon (Homo sapiens) (UniProt Q14164). The experiment in a line: Inhibition of recombinant full-length human IKKepsilon at 1 uM using casein as substrate after 40 mins in presence of [gamma-33P]ATP by scintillation counting method.
For data set [16], the target named is Serine/threonine-protein kinase mTOR (Homo sapiens) (UniProt P42345). The experiment in a line: Inhibition of recombinant full-length human mTOR at 1 uM after 40 mins in presence of [gamma-33P]ATP by scintillation counting method.
The target in data set [17] is Ephrin type-A receptor 8 (Homo sapiens) (UniProt P29322). The data set is described as follows: Inhibition of recombinant human EPHA8 (615 to 911 residues) at 1 uM using KTFCGTPEYLAPEVRREPRILSEEEQEMFRDFDYIADWC as substrate after 40 mins in presence of [gamma-33P]ATP by scintillation counting method.
Data set [18] deals with Serine/threonine-protein kinase Nek2 (Homo sapiens) (UniProt P51955). The data set is described as follows: Inhibition of recombinant full-length human NEK2 at 1 uM using myelin basic protein as substrate after 40 mins in presence of [gamma-33P]ATP by scintillation counting method.
Data set [19] addresses Tyrosine-protein kinase Lck (Homo sapiens) (UniProt P06239). The data set is described as follows: Inhibition of recombinant full-length human Lck at 1 uM using KVEKIGEGTYGVVYK (Cdc2 peptide) as substrate after 40 mins in presence of [gamma-33P]ATP by scintillation counting method.
For data set [20], the target named is Vascular endothelial growth factor receptor 3 (Homo sapiens) (UniProt P35916). The experiment in a line: Inhibition of recombinant human Flt4 (800 to end residues) at 1 uM using GGEEEEYFELVKKKK as substrate after 40 mins in presence of [gamma-33P]ATP by scintillation counting method.
Data set [21] concerns the target CDK4/Cyclin D3 (Homo sapiens) (UniProt P11802+P30281). The experiment in a line: Inhibition of recombinant full-length human CDK4/Cyclin D3 at 1 uM using Rb fragment as substrate after 40 mins in presence of [gamma-33P]ATP by scintillation counting method. It is filed as protein-complex assay.
Data set [22] addresses Protein kinase C delta type (Homo sapiens) (UniProt Q05655). The experiment in a line: Inhibition of recombinant human PKCdelta (2 to end residues) at 1 uM using ERMRPRKRQGSVRRRV as substrate after 40 mins in presence of [gamma-33P]ATP by scintillation counting method.
For data set [23], the target named is Serine/threonine-protein kinase ULK3 (Homo sapiens) (UniProt Q6PHR2). The experiment in a line: Inhibition of recombinant full-length human ULK3 at 1 uM using casein as substrate after 40 mins in presence of [gamma-33P]ATP by scintillation counting method.
The target in data set [24] is Calcium/calmodulin-dependent protein kinase type 1B (Homo sapiens) (UniProt Q6P2M8). The data set is described as follows: Inhibition of recombinant full-length human CAMK1beta at 1 uM using KKLRRTLSFAEPG as substrate after 40 mins in presence of [gamma-33P]ATP by scintillation counting method.
Chain of Calcium/calmodulin-dependent protein kinase type 1B (Homo sapiens) (Q6P2M8 whole entry): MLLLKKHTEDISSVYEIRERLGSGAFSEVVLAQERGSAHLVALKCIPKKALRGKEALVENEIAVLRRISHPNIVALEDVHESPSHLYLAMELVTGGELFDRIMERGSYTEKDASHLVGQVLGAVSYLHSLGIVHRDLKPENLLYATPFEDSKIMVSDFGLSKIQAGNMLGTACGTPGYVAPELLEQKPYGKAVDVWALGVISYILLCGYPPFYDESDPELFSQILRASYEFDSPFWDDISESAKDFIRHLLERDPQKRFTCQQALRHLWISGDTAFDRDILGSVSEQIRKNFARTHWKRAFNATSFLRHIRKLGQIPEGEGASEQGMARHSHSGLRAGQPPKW

Chain of Mitogen-activated protein kinase kinase kinase 7 (Homo sapiens) (O43318 whole entry, the tested form may be a part): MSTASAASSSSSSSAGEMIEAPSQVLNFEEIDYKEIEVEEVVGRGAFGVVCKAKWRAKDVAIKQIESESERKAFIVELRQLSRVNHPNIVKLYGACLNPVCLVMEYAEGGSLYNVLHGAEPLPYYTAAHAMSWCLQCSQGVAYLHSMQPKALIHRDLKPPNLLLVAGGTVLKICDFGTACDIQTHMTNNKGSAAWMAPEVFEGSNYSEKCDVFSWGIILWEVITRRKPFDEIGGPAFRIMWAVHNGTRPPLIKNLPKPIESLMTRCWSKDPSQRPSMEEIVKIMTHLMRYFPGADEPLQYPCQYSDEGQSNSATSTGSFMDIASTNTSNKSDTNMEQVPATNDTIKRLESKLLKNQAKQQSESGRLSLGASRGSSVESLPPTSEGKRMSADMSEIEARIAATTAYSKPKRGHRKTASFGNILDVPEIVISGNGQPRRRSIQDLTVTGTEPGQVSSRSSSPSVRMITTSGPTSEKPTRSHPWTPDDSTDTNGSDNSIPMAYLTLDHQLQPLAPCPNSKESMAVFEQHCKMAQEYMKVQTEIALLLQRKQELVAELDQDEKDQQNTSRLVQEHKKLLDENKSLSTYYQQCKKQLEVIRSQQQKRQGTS
Chain of Protein kinase C delta type (Homo sapiens) (Q05655 whole entry, looked up): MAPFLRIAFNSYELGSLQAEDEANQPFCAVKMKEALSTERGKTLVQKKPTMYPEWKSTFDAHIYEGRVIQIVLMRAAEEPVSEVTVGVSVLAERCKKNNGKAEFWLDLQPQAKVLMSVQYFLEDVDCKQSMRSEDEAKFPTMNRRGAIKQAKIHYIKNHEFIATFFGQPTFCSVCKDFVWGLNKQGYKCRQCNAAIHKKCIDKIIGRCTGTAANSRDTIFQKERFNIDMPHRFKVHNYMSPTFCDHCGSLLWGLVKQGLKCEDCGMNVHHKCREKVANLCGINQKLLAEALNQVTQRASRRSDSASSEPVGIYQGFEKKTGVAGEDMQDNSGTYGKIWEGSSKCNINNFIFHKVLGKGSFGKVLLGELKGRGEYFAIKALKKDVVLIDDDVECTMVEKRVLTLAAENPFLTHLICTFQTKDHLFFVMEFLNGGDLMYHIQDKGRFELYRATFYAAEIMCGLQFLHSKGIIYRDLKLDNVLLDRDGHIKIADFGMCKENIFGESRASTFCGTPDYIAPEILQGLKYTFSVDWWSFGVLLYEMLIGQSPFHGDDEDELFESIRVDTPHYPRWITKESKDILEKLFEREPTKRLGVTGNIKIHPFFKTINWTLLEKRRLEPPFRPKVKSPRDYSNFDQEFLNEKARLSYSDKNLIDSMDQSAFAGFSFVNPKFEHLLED
Chain of Inhibitor of nuclear factor kappa-B kinase subunit epsilon (Homo sapiens) (Q14164 whole entry): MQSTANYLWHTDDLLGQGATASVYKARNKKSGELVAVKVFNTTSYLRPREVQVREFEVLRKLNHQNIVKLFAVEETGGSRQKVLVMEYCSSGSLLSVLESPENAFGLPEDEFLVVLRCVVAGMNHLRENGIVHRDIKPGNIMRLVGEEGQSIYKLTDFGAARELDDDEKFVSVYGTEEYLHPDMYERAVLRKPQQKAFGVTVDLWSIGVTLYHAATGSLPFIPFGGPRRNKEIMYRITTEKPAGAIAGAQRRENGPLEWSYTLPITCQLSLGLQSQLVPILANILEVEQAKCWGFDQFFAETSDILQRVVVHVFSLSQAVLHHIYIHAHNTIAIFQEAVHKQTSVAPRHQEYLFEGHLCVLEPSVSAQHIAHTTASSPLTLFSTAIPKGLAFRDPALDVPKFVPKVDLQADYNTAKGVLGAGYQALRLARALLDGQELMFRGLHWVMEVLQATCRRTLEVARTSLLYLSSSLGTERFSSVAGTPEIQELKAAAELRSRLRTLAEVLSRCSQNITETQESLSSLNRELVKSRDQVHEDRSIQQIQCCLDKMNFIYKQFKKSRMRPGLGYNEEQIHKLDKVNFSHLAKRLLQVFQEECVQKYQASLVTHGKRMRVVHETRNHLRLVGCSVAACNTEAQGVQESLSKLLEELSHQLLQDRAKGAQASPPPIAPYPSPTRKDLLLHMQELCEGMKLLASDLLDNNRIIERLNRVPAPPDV
Chain of Vascular endothelial growth factor receptor 3 (Homo sapiens) (P35916 whole entry, the tested form may be a part): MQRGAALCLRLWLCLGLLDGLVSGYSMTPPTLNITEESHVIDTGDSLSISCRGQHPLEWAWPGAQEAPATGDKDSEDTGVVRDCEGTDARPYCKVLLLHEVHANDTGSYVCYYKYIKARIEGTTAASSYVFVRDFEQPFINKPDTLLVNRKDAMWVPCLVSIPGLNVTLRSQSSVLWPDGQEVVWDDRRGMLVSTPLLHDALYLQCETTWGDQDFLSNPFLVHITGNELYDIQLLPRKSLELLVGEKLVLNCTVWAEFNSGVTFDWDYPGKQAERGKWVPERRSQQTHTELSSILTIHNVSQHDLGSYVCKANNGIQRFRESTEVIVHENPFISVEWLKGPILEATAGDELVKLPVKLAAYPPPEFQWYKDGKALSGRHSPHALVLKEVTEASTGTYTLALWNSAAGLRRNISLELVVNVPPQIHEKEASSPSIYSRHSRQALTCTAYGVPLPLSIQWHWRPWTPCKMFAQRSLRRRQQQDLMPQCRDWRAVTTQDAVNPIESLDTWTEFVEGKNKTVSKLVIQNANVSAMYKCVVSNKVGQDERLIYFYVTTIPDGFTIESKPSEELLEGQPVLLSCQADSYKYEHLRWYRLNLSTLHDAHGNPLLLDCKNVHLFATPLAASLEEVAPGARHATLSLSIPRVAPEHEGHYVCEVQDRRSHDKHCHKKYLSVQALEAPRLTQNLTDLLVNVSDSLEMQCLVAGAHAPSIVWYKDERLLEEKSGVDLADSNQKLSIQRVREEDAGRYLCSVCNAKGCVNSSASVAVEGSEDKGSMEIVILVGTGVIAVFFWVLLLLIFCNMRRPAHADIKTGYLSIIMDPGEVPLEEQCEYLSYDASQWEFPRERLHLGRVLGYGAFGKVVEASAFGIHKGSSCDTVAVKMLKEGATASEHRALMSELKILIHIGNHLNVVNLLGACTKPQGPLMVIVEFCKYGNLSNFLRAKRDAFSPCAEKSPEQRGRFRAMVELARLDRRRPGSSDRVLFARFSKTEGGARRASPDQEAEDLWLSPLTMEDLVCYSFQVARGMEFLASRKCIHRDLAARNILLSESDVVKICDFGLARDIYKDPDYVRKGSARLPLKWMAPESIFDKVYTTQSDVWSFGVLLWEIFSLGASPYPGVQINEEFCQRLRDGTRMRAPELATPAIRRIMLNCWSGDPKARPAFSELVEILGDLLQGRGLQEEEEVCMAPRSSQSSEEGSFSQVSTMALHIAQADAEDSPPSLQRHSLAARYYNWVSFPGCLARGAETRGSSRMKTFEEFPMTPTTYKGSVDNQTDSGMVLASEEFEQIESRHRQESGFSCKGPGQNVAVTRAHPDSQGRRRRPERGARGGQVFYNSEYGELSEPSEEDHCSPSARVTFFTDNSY
Chain of Tyrosine-protein kinase Lck (Homo sapiens) (P06239 2-509 limits assumed): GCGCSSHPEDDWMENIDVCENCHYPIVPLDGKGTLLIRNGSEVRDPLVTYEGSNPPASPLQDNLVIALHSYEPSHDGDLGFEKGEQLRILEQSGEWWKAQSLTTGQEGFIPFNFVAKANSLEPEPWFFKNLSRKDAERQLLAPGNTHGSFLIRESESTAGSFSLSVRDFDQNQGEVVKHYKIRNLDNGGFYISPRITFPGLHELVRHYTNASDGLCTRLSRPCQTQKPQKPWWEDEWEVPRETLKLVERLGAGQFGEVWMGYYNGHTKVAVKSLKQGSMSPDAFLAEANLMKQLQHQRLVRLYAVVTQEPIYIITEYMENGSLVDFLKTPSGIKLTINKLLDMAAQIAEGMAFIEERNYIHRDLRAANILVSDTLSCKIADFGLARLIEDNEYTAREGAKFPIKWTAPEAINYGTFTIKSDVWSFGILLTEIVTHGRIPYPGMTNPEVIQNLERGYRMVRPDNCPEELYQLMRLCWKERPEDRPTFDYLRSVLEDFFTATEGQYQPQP
Chain of Mitogen-activated protein kinase 12 (Homo sapiens) (P53778 whole entry, the tested form may be a part): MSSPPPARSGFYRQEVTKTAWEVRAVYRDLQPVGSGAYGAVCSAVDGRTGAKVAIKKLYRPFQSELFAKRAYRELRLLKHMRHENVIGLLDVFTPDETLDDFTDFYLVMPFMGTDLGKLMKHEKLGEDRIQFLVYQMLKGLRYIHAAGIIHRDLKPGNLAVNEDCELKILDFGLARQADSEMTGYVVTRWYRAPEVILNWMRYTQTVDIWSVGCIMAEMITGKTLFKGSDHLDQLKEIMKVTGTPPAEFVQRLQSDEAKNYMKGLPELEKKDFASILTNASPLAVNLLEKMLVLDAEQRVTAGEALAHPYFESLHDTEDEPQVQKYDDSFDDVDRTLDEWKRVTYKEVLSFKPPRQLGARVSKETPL
Chain of Dual specificity mitogen-activated protein kinase kinase 7 (Homo sapiens) (O14733 whole entry, the tested form may be a part): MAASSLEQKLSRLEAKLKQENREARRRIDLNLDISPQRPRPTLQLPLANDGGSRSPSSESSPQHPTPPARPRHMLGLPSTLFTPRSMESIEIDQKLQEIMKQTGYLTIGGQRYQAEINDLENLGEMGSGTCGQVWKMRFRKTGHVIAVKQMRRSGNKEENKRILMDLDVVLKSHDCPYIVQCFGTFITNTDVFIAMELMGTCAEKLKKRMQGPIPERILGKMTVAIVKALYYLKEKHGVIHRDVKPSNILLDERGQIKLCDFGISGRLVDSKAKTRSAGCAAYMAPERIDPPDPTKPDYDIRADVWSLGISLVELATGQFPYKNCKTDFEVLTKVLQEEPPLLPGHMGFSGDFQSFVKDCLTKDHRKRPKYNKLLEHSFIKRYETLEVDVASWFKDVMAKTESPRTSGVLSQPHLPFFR

On to `CS(=O)(=O)c1ccc(-n2nc(-c3cnc4[nH]ccc4c3)c3c(N)ncnc32)cc1`, for which the inhibition in data set [1] is 11%; in data set [2] it was -4%; in data set [3], 37%; in data set [4], -4%; in [5], -3%; in data set [6] it was 2%. The inhibition in data set [7] is -10%; in data set [8], 50%; in [9], 2%; in data set [10] it was -2%; in data set [11], 0%; in [12] it was -2%. The inhibition in data set [14] is -5%; in [15] it was 3%; in data set [16] it was 65%; in data set [17] it was 15%; in data set [18], 3%; in [19], 55%. For the same compound, the inhibition in data set [20] is 91%; in [21] it was -9%; in data set [22], 1%; in [23], 16%; in data set [24] it was -5%. In data set [13], the remaining at 0.5 h, 1 µM stood at 63%.
